The supplement of paper PMC10307832

Assays:
Experiment in all cases: relative viability (nuclei count vs DMSO), 5 days (fraction); higher = more cells survive
201T = tested on: 201T
How it was run: (§1)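 Dosing by pin tool came one day after lung cancer cell lines were seeded in 1536-well plates, using either one drug or a fixed anchor-drug dose plus five library-drug doses (not always all listed) in √10 steps. After 5 days, nuclei were counted on 4× images. Relative viability is treated-well nuclei count divided by vehicle-well nuclei count, and values are medians of duplicate plates.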

COR-L 105 = tested on: COR-L 105
How it was run: as §1

COR-L23 = tested on: COR-L23
How it was run: as §1

EMC-BAC-2 = tested on: EMC-BAC-2
How it was run: as §1

HCC-15 = tested on: HCC-15
How it was run: as §1

HCC-366 = tested on: HCC-366
How it was run: as §1

LC-2-ad = tested on: LC-2-ad
How it was run: as §1

NCI-H1395 = tested on: NCI-H1395
How it was run: as §1

NCI-H1437 = tested on: NCI-H1437
How it was run: as §1

NCI-H1755 = tested on: NCI-H1755
How it was run: as §1

NCI-H1792 = tested on: NCI-H1792
How it was run: as §1

NCI-H1793 = tested on: NCI-H1793
How it was run: as §1

NCI-H1915 = tested on: NCI-H1915
How it was run: as §1

NCI-H2009 = tested on: NCI-H2009
How it was run: as §1

NCI-H2023 = tested on: NCI-H2023
How it was run: as §1

NCI-H2342 = tested on: NCI-H2342
How it was run: as §1

NCI-H2347 = tested on: NCI-H2347
How it was run: as §1

NCI-H23 = tested on: NCI-H23
How it was run: as §1

NCI-H358 = tested on: NCI-H358
How it was run: as §1

NCI-H650 = tested on: NCI-H650
How it was run: as §1

PC-14 = tested on: PC-14
How it was run: as §1

SK-MES-1 = tested on: SK-MES-1
How it was run: as §1

`CN1CCN(CCOc2cc(OC3CCOCC3)c3c(Nc4c(Cl)ccc5c4OCO5)ncnc3c2)CC1` [Saracatinib] + O=C(c1cc(Cc2n[nH]c(=O)c3ccccc23)ccc1F)N1CCN(C(=O)C2CC2)CC1 [Olaparib] (partner 8 µM) showed a relative viability (201T; first compound 0.02 µM) of 0.913, a relative viability (201T; first compound 0.2 µM) of 0.595 and a relative viability (201T; first compound 0.6325 µM) of 0.775. It also gave a relative viability (201T; first compound 2 µM) of 0.665, a relative viability (COR-L 105; first compound 0.02 µM) of 0.594 and a relative viability (COR-L 105; first compound 0.2 µM) of 0.617. It also gave a relative viability (COR-L 105; first compound 0.6325 µM) of 0.698, a relative viability (COR-L 105; first compound 2 µM) of 0.698 and a relative viability (COR-L23; first compound 0.02 µM) of 0.447. The relative viability (COR-L23; first compound 0.2 µM) was 0.319, the relative viability (COR-L23; first compound 0.6325 µM) was 0.346 and the relative viability (COR-L23; first compound 2 µM) was 0.312. The relative viability (EMC-BAC-2; first compound 0.02 µM) was 0.489, the relative viability (EMC-BAC-2; first compound 0.2 µM) was 0.418 and the relative viability (EMC-BAC-2; first compound 0.6325 µM) was 0.562. It also gave a relative viability (EMC-BAC-2; first compound 2 µM) of 0.474, a relative viability (HCC-15; first compound 0.02 µM) of 0.717 and a relative viability (HCC-15; first compound 0.2 µM) of 0.634. For the same molecule, the relative viability (HCC-15; first compound 0.6325 µM) was 0.79, the relative viability (HCC-15; first compound 2 µM) was 0.752 and the relative viability (HCC-366; first compound 0.02 µM) was 0.343. The relative viability (HCC-366; first compound 0.2 µM) was 0.0912, the relative viability (HCC-366; first compound 0.6325 µM) was 0.264 and the relative viability (HCC-366; first compound 2 µM) was 0.199. The relative viability (LC-2-ad; first compound 0.02 µM) was 0.773, the relative viability (LC-2-ad; first compound 0.2 µM) was 0.636 and the relative viability (LC-2-ad; first compound 0.6325 µM) was 0.723. The relative viability (LC-2-ad; first compound 2 µM) was 0.705, the relative viability (NCI-H1395; first compound 0.02 µM) was 0.497 and the relative viability (NCI-H1395; first compound 0.2 µM) was 0.488. It also gave a relative viability (NCI-H1395; first compound 0.6325 µM) of 0.409, a relative viability (NCI-H1395; first compound 2 µM) of 0.436 and a relative viability (NCI-H1437; first compound 0.02 µM) of 0.68. The relative viability (NCI-H1437; first compound 0.2 µM) was 0.648, the relative viability (NCI-H1437; first compound 0.6325 µM) was 0.618 and the relative viability (NCI-H1437; first compound 2 µM) was 0.658. The relative viability (NCI-H1755; first compound 0.02 µM) was 0.876, the relative viability (NCI-H1755; first compound 0.2 µM) was 0.751 and the relative viability (NCI-H1755; first compound 0.6325 µM) was 0.872. For the same molecule, the relative viability (NCI-H1755; first compound 2 µM) was 0.786, the relative viability (NCI-H1792; first compound 0.02 µM) was 0.537 and the relative viability (NCI-H1792; first compound 0.2 µM) was 0.352. It also gave a relative viability (NCI-H1792; first compound 0.6325 µM) of 0.644, a relative viability (NCI-H1792; first compound 2 µM) of 0.385 and a relative viability (NCI-H1793; first compound 0.02 µM) of 0.872. For the same molecule, the relative viability (NCI-H1793; first compound 0.2 µM) was 0.498, the relative viability (NCI-H1793; first compound 0.6325 µM) was 0.777 and the relative viability (NCI-H1793; first compound 2 µM) was 0.564. For the same molecule, the relative viability (NCI-H1915; first compound 0.02 µM) was 0.256, the relative viability (NCI-H1915; first compound 0.2 µM) was 0.244 and the relative viability (NCI-H1915; first compound 0.6325 µM) was 0.281. The relative viability (NCI-H1915; first compound 2 µM) was 0.225, the relative viability (NCI-H2009; first compound 0.02 µM) was 0.709 and the relative viability (NCI-H2009; first compound 0.2 µM) was 0.477. The relative viability (NCI-H2009; first compound 0.6325 µM) was 0.688, the relative viability (NCI-H2009; first compound 2 µM) was 0.724 and the relative viability (NCI-H2023; first compound 0.02 µM) was 0.503. The relative viability (NCI-H2023; first compound 0.6325 µM) was 0.417, the relative viability (NCI-H2023; first compound 2 µM) was 0.393 and the relative viability (NCI-H2342; first compound 0.02 µM) was 0.55. The relative viability (NCI-H2342; first compound 0.2 µM) was 0.312, the relative viability (NCI-H2342; first compound 0.6325 µM) was 0.434 and the relative viability (NCI-H2342; first compound 2 µM) was 0.451. It also gave a relative viability (NCI-H2347; first compound 0.02 µM) of 0.571, a relative viability (NCI-H2347; first compound 0.2 µM) of 0.428 and a relative viability (NCI-H2347; first compound 0.6325 µM) of 0.622. The relative viability (NCI-H2347; first compound 2 µM) was 0.551, the relative viability (NCI-H23; first compound 0.02 µM) was 0.386 and the relative viability (NCI-H23; first compound 0.6325 µM) was 0.391. The relative viability (NCI-H23; first compound 2 µM) was 0.23, the relative viability (NCI-H358; first compound 0.02 µM) was 0.527 and the relative viability (NCI-H358; first compound 0.2 µM) was 0.529. For the same molecule, the relative viability (NCI-H358; first compound 0.6325 µM) was 0.272, the relative viability (NCI-H358; first compound 2 µM) was 0.324 and the relative viability (NCI-H650; first compound 0.02 µM) was 0.353. The relative viability (NCI-H650; first compound 0.2 µM) was 0.442, the relative viability (NCI-H650; first compound 0.6325 µM) was 0.429 and the relative viability (NCI-H650; first compound 2 µM) was 0.432. It also gave a relative viability (PC-14; first compound 0.02 µM) of 0.263, a relative viability (PC-14; first compound 0.2 µM) of 0.261 and a relative viability (PC-14; first compound 0.6325 µM) of 0.201. It also gave a relative viability (PC-14; first compound 2 µM) of 0.117, a relative viability (SK-MES-1; first compound 0.02 µM) of 0.703 and a relative viability (SK-MES-1; first compound 0.2 µM) of 0.69. It also gave a relative viability (SK-MES-1; first compound 0.6325 µM) of 0.49 and a relative viability (SK-MES-1; first compound 2 µM) of 0.299.
